Converted amounts (≈) assume the structure as drawn.
Key:
[1] = target: T1, C-C chemokine receptor type 9 (Homo sapiens, UniProt P51686)
T1 sequence (P51686 whole entry): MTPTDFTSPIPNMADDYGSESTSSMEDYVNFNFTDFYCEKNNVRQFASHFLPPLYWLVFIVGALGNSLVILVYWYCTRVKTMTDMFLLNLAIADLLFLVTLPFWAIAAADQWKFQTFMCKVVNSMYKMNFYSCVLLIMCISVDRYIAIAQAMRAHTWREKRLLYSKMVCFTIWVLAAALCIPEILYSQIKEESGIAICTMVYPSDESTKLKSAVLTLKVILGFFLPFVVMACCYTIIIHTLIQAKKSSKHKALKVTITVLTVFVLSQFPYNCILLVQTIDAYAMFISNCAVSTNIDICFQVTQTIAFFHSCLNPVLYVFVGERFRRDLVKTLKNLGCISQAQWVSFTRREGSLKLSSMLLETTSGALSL
Description: Antagonist activity at CCR9 receptor (unknown origin) assessed as inhibition of TECK-induced calcium mobilization incubated for 10 mins prior to TECK induction

[2] = Solubility of the compound at pH 7.4; type: physicochemical; settings: buffer
[3] = Solubility of the compound at pH 9; type: physicochemical; settings: buffer
[4] = Plasma protein binding in human; type: ADME, cell-free; settings: read-out: PPB (converted)
[5] = Clearance in mouse liver microsomes; type: ADME; settings: read-out: CLH
Mus musculus = assay: Dose normalized AUC in iv dosed mouse; type: ADME, organism-based; settings: in vivo
[6] = Clearance in iv dosed mouse; type: ADME, organism-based; settings: in vivo
[7] = Terminal half life in iv and po dosed mouse; type: ADME, organism-based; settings: in vivo, read-out: beta t1/2 (converted)
[8] = Volume of distribution at steady state in iv dosed mouse; type: ADME, organism-based; settings: in vivo, read-out: Vdss
[9] = Oral bioavailability in mouse; type: ADME, organism-based; settings: in vivo
[10] = Lipophilicity, log D of the compound; type: physicochemical; settings: octanol/water

| SMILES | IC50 [1] | further results |
| --- | --- | --- |
| CC(C)(C)c1ccc(S(=O)(=O)Nc2ccc(Cl)cc2-c2nc(Cl)cnc2NCCO)cc1 | 715 nM | – |
| CC(C)(C)c1ccc(S(=O)(=O)Nc2ccc(Cl)cc2-c2ncnc(N)c2O)cc1 | 14 nM | – |
| CCNc1nccnc1-c1cc(Cl)ccc1NS(=O)(=O)c1ccc(C(C)(C)C)cc1 | 421 nM | – |
| COc1cccnc1-c1cc(Cl)ccc1NS(=O)(=O)c1ccc(C(C)(C)C)cc1 | 958 nM | – |
| CC(C)(C)c1ccc(S(=O)(=O)Nc2ccc(Cl)cc2-c2ncccc2CO)cc1 | 89 nM | – |
| CN(C)CCNc1nccnc1-c1cc(Cl)ccc1NS(=O)(=O)c1ccc(C(C)(C)C)cc1 | 3600 nM | – |
| CC(C)(C)c1ccc(S(=O)(=O)Nc2ccc(Cl)cc2-c2ccccn2)cc1 | > 10000 nM | – |
| CC(C)(C)c1ccc(S(=O)(=O)Nc2ccc(Cl)cc2-c2nc(NCCO)ncc2O)cc1 | 214 nM | – |
| CC(C)(C)c1ccc(S(=O)(=O)Nc2ccc(Cl)cc2C(=O)c2cc[n+]([O-])cc2)cc1 [VERCIRNON] | – | solubility [2]: 1.2 µg/mL (≈ 2.7 µM); solubility [3]: 51 µg/mL (≈ 115 µM); fraction unbound [4]: 0.009; CLint scaled [5]: 147 mL/min/kg; AUC/dose (Mus musculus): 0.56 µg·h/mL/mg/kg; clearance [6]: 33 mL/min/kg; half-life [7]: 1.3 h; Vd [8]: 0.83 L/kg; bioavailability [9]: 10%; logD [10]: 3.7 |
| CC(C)(C)c1ccc(S(=O)(=O)Nc2ccc(Cl)cc2-c2ncncc2N)cc1 | 3.2 nM | – |
| CC(C)(C)c1ccc(S(=O)(=O)Nc2ccc(Cl)cc2-c2ncnc(CO)c2O)cc1 | 11 nM | – |
| CC(C)(C)c1ccc(S(=O)(=O)Nc2ccc(Cl)cc2-c2nccc(C(N)=O)c2O)cc1 | 52 nM | – |
| Cc1cnc(-c2cc(Cl)ccc2NS(=O)(=O)c2ccc(C(C)(C)C)cc2)c(NCCO)n1 | 268 nM | – |
| CNc1ncc(O)c(-c2cc(Cl)ccc2NS(=O)(=O)c2ccc(C(C)(C)C)cc2)n1 | 27 nM | – |
| CC(C)(C)c1ccc(S(=O)(=O)Nc2ccc(Cl)cc2-c2ncccc2CN)cc1 | 3160 nM | – |
| CC(C)(C)c1ccc(S(=O)(=O)Nc2ccc(Cl)cc2-c2ncccc2O)cc1 | 29 nM | – |
| CN(C)c1ncnc(-c2cc(Cl)ccc2NS(=O)(=O)c2ccc(C(C)(C)C)cc2)c1O | 9 nM | – |

| SMILES | IC50 [1] | further results |
| --- | --- | --- |
| CC(C)(C)c1ccc(S(=O)(=O)Nc2ccc(Cl)cc2-c2nccnc2NCC(=O)O)cc1 | 812 nM | – |
| CC(C)(C)c1ccc(S(=O)(=O)Nc2ccc(Cl)cc2-c2nncc(N3CCOCC3)c2N)cc1 | 26 nM | – |
| COc1ccnc(-c2cc(Cl)ccc2NS(=O)(=O)c2ccc(C(C)(C)C)cc2)c1 | 2500 nM | – |
| CC(C)(C)c1ccc(S(=O)(=O)Nc2ccc(Cl)cc2-c2nccnc2NCCO)cc1 | 34 nM | solubility [2]: 240 µg/mL (≈ 521 µM); solubility [3]: 1100 µg/mL (≈ 2390 µM); fraction unbound [4]: 0.016; CLint scaled [5]: 49 mL/min/kg; AUC/dose (Mus musculus): 0.65 µg·h/mL/mg/kg; clearance [6]: 26 mL/min/kg; half-life [7]: 1.2 h; Vd [8]: 1.1 L/kg; bioavailability [9]: 38% |
| CC(C)(C)c1ccc(S(=O)(=O)Nc2ccc(Cl)cc2-c2nccc(CO)c2O)cc1 | 8.7 nM | – |
| CC(C)(C)c1ccc(S(=O)(=O)Nc2ccc(Cl)cc2-c2ncncc2O)cc1 | 11 nM | – |
| CNc1nccnc1-c1cc(Cl)ccc1NS(=O)(=O)c1ccc(C(C)(C)C)cc1 | 25 nM | – |
| CC(C)(C)c1ccc(S(=O)(=O)Nc2ccc(Cl)cc2-c2ncccc2N)cc1 | 95 nM | – |
| CNc1cnc(-c2cc(Cl)ccc2NS(=O)(=O)c2ccc(C(C)(C)C)cc2)c(NCCO)n1 | 1010 nM | – |
| CC(C)(C)c1ccc(S(=O)(=O)Nc2ccc(Cl)cc2-c2ncccn2)cc1 | 0.3 nM | – |
| CC(C)(C)c1ccc(S(=O)(=O)Nc2ccc(Cl)cc2-c2nc(N)ncc2O)cc1 | 4 nM | – |
| CC(C)(C)c1ccc(S(=O)(=O)Nc2ccc(Cl)cc2-c2nnccc2N)cc1 | 3.8 nM | – |
| CC(C)(C)c1ccc(S(=O)(=O)Nc2ccc(Cl)cc2-c2nccnc2NCCCO)cc1 | 614 nM | – |
| CCc1ncnc(-c2cc(Cl)ccc2NS(=O)(=O)c2ccc(C(C)(C)C)cc2)c1O | 6 nM | – |
| CC(C)(C)c1ccc(S(=O)(=O)Nc2ccc(Cl)cc2-c2c(O)ccc[n+]2[O-])cc1 | 491 nM | – |
| COCc1cccnc1-c1cc(Cl)ccc1NS(=O)(=O)c1ccc(C(C)(C)C)cc1 | 3480 nM | – |
| CC(C)(C)c1ccc(S(=O)(=O)Nc2ccc(Cl)cc2-c2nccnc2N)cc1 | 3.2 nM | – |

Reference: ChEMBL document CHEMBL3603812, “Biarylsulfonamide CCR9 inhibitors for inflammatory bowel disease” (Bioorg Med Chem Lett, 2015)
